Measurements reported in ChEMBL document CHEMBL2407075, “Sulphonamido-quinoxalines: search for anticancer agent” (Eur J Med Chem, 2013).

Test: Oral bioavailability in human
Type: ADME, organism-based
Conditions: in silico prediction

Compared with `CC(=O)NS(=O)(=O)c1ccc2nc(-c3ccccc3)c(-c3ccccc3)nc2c1`, `CC(=O)c1cccc(NS(=O)(=O)c2ccc3nc(-c4ccccc4)c(-c4ccccc4)nc3c2)c1` is higher in bioavailability: 94.7% for the first, 96.9% for the second.

Compared with `O=S(=O)(Nc1ccc2ccccc2c1)c1ccc2nc(-c3ccccc3)c(-c3ccccc3)nc2c1`, `O=S(=O)(Nc1ccc(O)cc1)c1ccc2nc(-c3ccccc3)c(-c3ccccc3)nc2c1` is lower in bioavailability: 100% for the first, 93.9% for the second.

First: O=[N+]([O-])c1ccc(NS(=O)(=O)c2ccc3nc(-c4ccccc4)c(-c4ccccc4)nc3c2)cc1
Second: O=[N+]([O-])c1cccc(NS(=O)(=O)c2ccc3nc(-c4ccccc4)c(-c4ccccc4)nc3c2)c1
The bioavailability of the first is higher: 87.6% for the first, 85.6% for the second.

Compared with `O=C(O)c1ccccc1NS(=O)(=O)c1ccc2nc(-c3ccccc3)c(-c3ccccc3)nc2c1`, `Cc1ccnc(NS(=O)(=O)c2ccc3nc(-c4ccccc4)c(-c4ccccc4)nc3c2)c1` is higher in bioavailability: 83.6% for the first, 100% for the second.
